Reference: ChEMBL document CHEMBL1155189, “Bioactivity-guided isolation of cytotoxic constituents from stem-bark of Premna tomentosa” (Bioorg Med Chem Lett, 2009)
In brackets after ≈: the same amount, converted by molar mass.

Experiments:
Format in all cases: functional, cell-based
A-431 = test: Cytotoxicity against human A431 cells after 48 hrs by MTT assay
HepG2 = test: Cytotoxicity against human HepG2 cells after 48 hrs by MTT assay
A549 = test: Cytotoxicity against human A549 cells after 48 hrs by MTT assay; details: A549, 48 h
HT-29 = test: Cytotoxicity against human HT-29 cells after 48 hrs by MTT assay
MCF7 = test: Cytotoxicity against human MCF7 cells after 48 hrs by MTT assay; details: MCF7, 48 h
[1] = Homo sapiens, HepG2, 48 h, read-out: IC50
[2] = Homo sapiens, HT-29, 48 h, read-out: IC50

SMILES | IC50 (A-431) | IC50 (HepG2; hepg2) | IC50 (A549) | IC50 (HT-29; ht-29) | IC50 (MCF7) | IC50 (HepG2; [1]) | IC50 (HT-29; [2])
CC(CO)c1cc(O)c2c(c1)CC[C@H]1C(C)(C)CCC[C@]1(O)C2 (stereo not given in full) | Not Active | Not Active | 43.6 µg/mL (≈ 137 µM) | Not Active | 80.8 µg/mL (≈ 254 µM) | – | –
CC(CO)c1cc(O)c2c(c1)[C@@H](O)C[C@H]1C(C)(C)CCC[C@]1(O)C2 (stereo not given in full) | Not Active | – | 21.4 µg/mL (≈ 63.9 µM) | – | 15.8 µg/mL (≈ 47.4 µM) | 34.4 µg/mL (≈ 103 µM) | 14.6 µg/mL (≈ 43.6 µM)
CC(CO)c1cc2c(c(O)c1O)C[C@@]1(O)CCCC(C)(C)[C@@H]1CC2 (stereo not given in full) | Not Active | – | 18.6 µg/mL (≈ 55.7 µM) | – | 16 µg/mL (≈ 47.7 µM) | 18.6 µg/mL (≈ 55.7 µM) | 16.2 µg/mL (≈ 48.5 µM)
